The target in this assay is T1, recombinant human ALX receptor (Homo sapiens, UniProt P25090).
T1 construct: expressed in transfected cells; host or cells: HEK293 (HEK293-hALXR-Gα16)
T1 sequence (P25090 1-351): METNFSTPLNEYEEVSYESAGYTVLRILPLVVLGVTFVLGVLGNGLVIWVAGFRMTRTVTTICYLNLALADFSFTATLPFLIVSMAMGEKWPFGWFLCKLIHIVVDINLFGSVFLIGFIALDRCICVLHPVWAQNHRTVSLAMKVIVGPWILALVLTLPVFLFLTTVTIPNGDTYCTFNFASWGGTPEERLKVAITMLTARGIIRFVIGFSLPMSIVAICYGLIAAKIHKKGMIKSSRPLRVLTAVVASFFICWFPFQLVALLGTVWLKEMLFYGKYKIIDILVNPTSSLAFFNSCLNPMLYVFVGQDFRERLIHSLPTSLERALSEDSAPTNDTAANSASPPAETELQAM
Kind of assay: Intracellular calcium measurements (FLIPR), ALX receptor agonistic activity. The conditions noted are these: HEK293-hALXR-Gα16 cells, Fluo-4 calcium signal, normalized to WKYMVm 10 nM. The format is cell-based. The method, boiled down:
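HEK293 cells co-expressing human ALX receptor and Gα16 were loaded with 1 μM Fluo-4 AM for 60 min at 37° C., then exposed to serially diluted compounds on FLIPR Tetra. Peak fluorescence above baseline (ex 488/em 540 nm) was normalized to 10 nM WKYMVm as high control.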
A general note: A change in cytosolic calcium serves as a functional read-out for many receptors and channels.

The text below walks through data of US9663473B2 (Actelion Pharmaceuticals Ltd, priority 2013, dated 2017).

Molecules are shown by their SMILES. Structures can show the parent of a compound that is named as a salt.

For orientation: EC50 means the concentration that produces a half-maximal response. In the case of `COc1ccc(C[C@@H](NC(=O)NCc2cccc(OC)c2)c2nc3ccccc3[nH]2)cc1` [Example 5, (R)-1-(1-(1H-Benzo[d]imidazol-2-yl)-2-(4-methoxyphenyl)ethyl)-3-(3-methoxybenzyl)urea], the EC50 was 0.602 µM. The figure for `COc1ccc(C[C@@H](NC(=O)NCC2CCc3ccccc32)c2nc3ccccc3[nH]2)cc1` (stereo partly drawn) [Example 72, 1-((R)-1-(1H-Benzo[d]imidazol-2-yl)-2-(4-methoxyphenyl)ethyl)-3-((2,3-dihydro-1H-inden-1-yl)methyl)urea] is 0.067 µM; for `COc1ccc(C[C@@H](NC(=O)N[C@@H]2CCN(C(C)=O)C2)c2nc3ccccc3[nH]2)cc1` [Example 142, 1-((R)-1-(1H-Benzo[d]imidazol-2-yl)-2-(4-methoxyphenyl)ethyl)-3-((R)-1-acetylpyrrolidin-3-yl)urea] it is 0.306 µM. Take `COc1ccc(C[C@@H](NC(=O)NCc2ncc(Br)cc2F)c2nc3ccccc3[nH]2)cc1` [Example 291, (R)-1-(1-(1H-Benzo[d]imidazol-2-yl)-2-(4-methoxyphenyl)ethyl)-3-((5-bromo-3-fluoropyridin-2-yl)methyl)urea]: the EC50 amounted to 0.439 µM. Regarding `COc1ccc(C[C@@H](NC(=O)NCCc2cccc(Cl)c2)c2nc3ccccc3[nH]2)cc1` [Example 61, (R)-1-(1-(1H-Benzo[d]imidazol-2-yl)-2-(4-methoxyphenyl)ethyl)-3-(3-chlorophenethyl)urea hydrochloride], the concentration for a half-maximal effect (EC50) worked out at 0.239 µM. On to `COc1ccc(C[C@@H](NC(=O)NC(C)c2ccc(OC(F)F)cc2)c2nc3ccccc3[nH]2)cc1` (stereo partly drawn) [Example 271, 1-((R)-1-(1H-Benzo[d]imidazol-2-yl)-2-(4-methoxyphenyl)ethyl)-3-(1-(4-(difluoromethoxy)phenyl)ethyl)urea], for which the EC50 is 0.12 µM.

Take `O=C(NC(Cc1ccc(C(F)(F)F)c(F)c1)c1nc2ccccc2[nH]1)NC12CCC(O)(CC1)CC2` (centres unmarked) [Example 238, 1-(1-(1H-Benzo[d]imidazol-2-yl)-2-(3-fluoro-4-(trifluoromethyl)phenyl)ethyl)-3-(4-hydroxybicyclo[2.2.2]octan-1-yl)urea]: the concentration for a half-maximal effect (EC50) is 0.036 µM. For the molecule `COc1ccc(CC(NC(=O)NC23CCC(O)(CC2)CC3)c2nc3ccccc3[nH]2)cc1F` (centres unmarked) [Example 193, 1-(1-(1H-Benzo[d]imidazol-2-yl)-2-(3-fluoro-4-methoxyphenyl)ethyl)-3-(4-hydroxybicyclo[2.2.2]octan-1-yl)urea], the EC50 was 0.0018 µM. To `COc1ccc(C[C@@H](NC(=O)NC2CCC(F)(F)CC2)c2nc3ccccc3[nH]2)cc1` [Example 14, (R)-1-(1-(1H-Benzo[d]imidazol-2-yl)-2-(4-methoxyphenyl)ethyl)-3-(4,4-difluorocyclohexyl)urea] belongs 0.038 µM; to `COc1ccc(CC(NC(=O)NCCc2ccccn2)c2nc3ccccc3[nH]2)cc1` (centres unmarked) [Example 8, 1-(1-(1H-Benzo[d]imidazol-2-yl)-2-(4-methoxyphenyl)ethyl)-3-(2-(pyridin-2-yl)ethyl)urea], 0.593 µM. The figure for `COc1ccc(CC(NC(=O)NCc2cnc3ccccn23)c2nc3ccccc3[nH]2)cc1` (centres unmarked) [Example 51, 1-(1-(1H-Benzo[d]imidazol-2-yl)-2-(4-methoxyphenyl)ethyl)-3-(imidazo[1,2-a]pyridin-3-ylmethyl)urea] is 0.99 µM; for `COc1ccc(C[C@@H](NC(=O)NCCC2CCCN2C)c2nc3ccccc3[nH]2)cc1` (stereo partly drawn) [Example 65, 1-((R)-1-(1H-Benzo[d]imidazol-2-yl)-2-(4-methoxyphenyl)ethyl)-3-(2-(1-methylpyrrolidin-2-yl)ethyl)urea dihydrochloride] it is 0.29 µM. To `COc1ccc(C[C@@H](NC(=O)N[C@H]2CC[C@H](O)C2)c2nc3ccccc3[nH]2)cc1` (relative stereo) [Example 172, 1-((R)-1-(1H-Benzo[d]imidazol-2-yl)-2-(4-methoxyphenyl)ethyl)-3-((1 S*,3S*)-3-hydroxycyclopentyl)urea] belongs 0.015 µM.

In the case of `COc1ccc(CC(NC(=O)N[C@H]2CC[C@H](O)CC2)c2nc3ccc(F)cc3[nH]2)cc1F` (single isomer, unassigned; ent-1) [Example 318, 1-(1-(6-Fluoro-1H-benzo[d]imidazol-2-yl)-2-(3-fluoro-4-methoxyphenyl)ethyl)-3-(trans-4-hydroxycyclohexyl)urea (ent-1)], the EC50 was 0.0012 µM. In the case of `COc1ccc(CC(NC(=O)N[C@H]2CC[C@H](O)CC2)c2nc3ccc(F)cc3[nH]2)c(F)c1` (single isomer, unassigned; ent-2) [Example 370, 1-(1-(6-Fluoro-1H-benzo[d]imidazol-2-yl)-2-(2-fluoro-4-methoxyphenyl)ethyl)-3-(trans-4-hydroxycyclohexyl)urea (ent-2)], the EC50 was 0.717 µM. With `COc1ccc(C[C@@H](NC(=O)N[C@H]2C[C@@H]2c2ccccc2)c2nc3ccccc3[nH]2)cc1` (relative stereo) [Example 16, 1-((R)-1-(1H-Benzo[d]imidazol-2-yl)-2-(4-methoxyphenyl)ethyl)-3-((1 S*,2R*)-2-phenylcyclopropyl)urea hydrochloride], the EC50 amounted to 0.112 µM. The figure for `COc1ccc(C[C@@H](NC(=O)N[C@H]2CC[C@H](O)CC2)c2nc3cc(C)ccc3[nH]2)cc1` [Example 83, 1-(trans-4-Hydroxycyclohexyl)-3-((R)-2-(4-methoxyphenyl)-1-(5-methyl-1H-benzo[d]imidazol-2-yl)ethyl)urea] is 0.0017 µM; for `O=C(NC(Cc1ccc(C(F)(F)F)cc1F)c1nc2ccccc2[nH]1)N[C@H]1CC[C@H](O)CC1` (single isomer, unassigned; ent-1) [Example 399, 1-(1-(1H-Benzo[d]imidazol-2-yl)-2-(2-fluoro-4-(trifluoromethyl)phenyl)ethyl)-3-(trans-4-hydroxycyclohexyl)urea (ent-1)] it is 1.7 µM. The figure for `COc1ccc(C[C@@H](NC(=O)NCc2cc(Cl)ccc2Cl)c2nc3ccccc3[nH]2)cc1` [Example 303, (R)-1-(1-(1H-Benzo[d]imidazol-2-yl)-2-(4-methoxyphenyl)ethyl)-3-(2,5-dichlorobenzyl)urea] is 0.426 µM. As for `COc1ccc(C[C@@H](NC(=O)NC2CCCN(CC(F)F)C2)c2nc3ccccc3[nH]2)cc1` (stereo partly drawn) [Example 186, 1-((R)-1-(1H-Benzo[d]imidazol-2-yl)-2-(4-methoxyphenyl)ethyl)-3-(-1-(2,2-difluoroethyl)piperidin-3-yl)urea], the EC50 worked out at 0.029 µM. On to `COc1ccc(C[C@@H](NC(=O)NCCN2CCN(C(C)=O)CC2)c2nc3ccccc3[nH]2)cc1` [Example 390, (R)-1-(1-(1H-Benzo[d]imidazol-2-yl)-2-(4-methoxyphenyl)ethyl)-3-(2-(4-acetylpiperazin-1-yl)ethyl)urea], for which the EC50 worked out at 2.68 µM. Turning to `COc1ccc(CC(NC(=O)NC23CCC(O)(CC2)CC3)c2nc3ccccc3[nH]2)c(F)c1F` (centres unmarked) [Example 251, 1-(1-(1H-Benzo[d]imidazol-2-yl)-2-(2,3-difluoro-4-methoxyphenyl)ethyl)-3-(4-hydroxybicyclo[2.2.2]octan-1-yl)urea], the EC50 is 0.0066 µM. The figure for `COc1ccc(CCNC(=O)NC(Cc2ccc(OC)cc2)c2nc3ccccc3[nH]2)cc1` (centres unmarked) [Example 53, 1-(1-(1H-Benzo[d]imidazol-2-yl)-2-(4-methoxyphenyl)ethyl)-3-(4-methoxyphenethyl)urea] is 0.539 µM.
